Measurements taken from patent US10961216B2, “Small molecule modulators of the androgen receptor” (Massachusetts Institute of Technology, priority 2017, dated 2021).

Key:
VCaP (AR+) cell lines = assay: cell proliferation, VCaP; assay type: cell-based; settings: 72 hours
aggregation monitoring = assay type: physicochemical; settings: at IC50 in RPMI, DMSO, or PBS
Procedure: All compounds were evaluated in a reporter gene assay (22Rv1 cell line lentiviral transduced with CMV-firefly luciferase) to monitor transcriptional effects and two cell viability assays (Cell-titer blue; PC3 cell line, an AR insensitive cell line, and LNCaP cell line, an AR sensitive cell line). The compounds were also monitored for aggregation.

LNCaP (AR+) cell lines = assay: cell proliferation, LNCaP; assay type: cell-based, human; settings: 72 hours
prostate cancer cell = prostate cancer cell proliferation, different cancer cell lines; assay type: cell-based; settings: 72 hours
22Rv1 (AR+) cell lines = assay: cell proliferation, 22Rv1; assay type: cell-based; settings: 72 hours
PC3 (AR-) cell lines = assay: cell proliferation, PC3; assay type: cell-based; settings: 72 hours
DU-145 (AR-) cell lines = assay: cell proliferation, DU-145; assay type: cell-based; settings: 72 hours
AR-v7 = target: T1, AR-v7 (Homo sapiens, UniProt P10275); assay: small molecule microarray (SMM) screen, binding to AR-v7; settings: SMM screened against AR-truncate of NTD and DBD (exons 1-3), with qPCR and reporter assays
T1 construct: screened against a functional AR-truncate composed of the NTD and DBD (exons 1-3)
T1 sequence (P10275 1-628 limits assumed): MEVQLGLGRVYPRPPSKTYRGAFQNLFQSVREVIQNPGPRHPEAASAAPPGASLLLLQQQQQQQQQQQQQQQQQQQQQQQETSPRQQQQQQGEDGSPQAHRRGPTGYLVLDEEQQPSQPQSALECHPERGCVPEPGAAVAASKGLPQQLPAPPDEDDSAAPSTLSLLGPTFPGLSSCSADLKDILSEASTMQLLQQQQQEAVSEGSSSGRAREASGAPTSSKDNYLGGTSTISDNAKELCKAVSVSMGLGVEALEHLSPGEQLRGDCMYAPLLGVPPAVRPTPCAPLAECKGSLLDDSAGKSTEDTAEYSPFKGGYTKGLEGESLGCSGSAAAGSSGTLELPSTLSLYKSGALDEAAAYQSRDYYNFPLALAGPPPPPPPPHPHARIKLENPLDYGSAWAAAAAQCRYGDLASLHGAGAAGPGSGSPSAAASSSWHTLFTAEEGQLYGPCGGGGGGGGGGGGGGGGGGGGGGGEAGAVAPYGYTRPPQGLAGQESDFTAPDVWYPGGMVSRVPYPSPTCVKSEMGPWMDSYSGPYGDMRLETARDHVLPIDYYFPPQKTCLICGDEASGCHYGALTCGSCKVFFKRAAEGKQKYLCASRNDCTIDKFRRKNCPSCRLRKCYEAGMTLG
Source text: (§1) To meet this need, compounds binding to AR-v7 were identified using the combination of a small molecule microarray (SMM) screen of 50,000 compounds, qPCR, and reporter assays. The SMM was screened against a functional AR-truncate composed of the NTD and DBD (exons 1-3) and therefore targeting these domains specifically. Candidate compounds were further evaluated in a series of assays designed to show specificity to AR-sensitive cell lines.

LNCaP = LNCaP reporter assay; assay type: cell-based; settings: Homo sapiens
Source text: as §1
Compounds of the invention may also be identified via a reporter assay. Reporter assays are commonly used to study signaling pathways, gene expression and regulation at the transcriptional level, and the structure of regulatory elements. In general, a reporter assay comprises a regulatory element of interest (e.g. promoter DNA) along with a reporter gene (e.g., gene encoding a reporter protein) cloned into a vector and transfected into cells. In certain embodiments, a reporter is a protein. In certain embodiments, a reporter is a protein with an easily measureable activity. “Easily measureable activity” (or simply “activity”) can refer to any activity that can be measured through methods known in the art, such as fluorescence, enzymatic activities that generate fluorescent or luminescent products, or indirectly with antibodies. […]

In the case of `O=C(NCCC1C[C@@H]2C=C[C@H]1C2)c1cccc(OC2CCN(C(=O)C3CC3)CC2)c1` (stereo partly drawn) [Compound (1), N-(2-((1S,4S)-bicyclo[2.2.1]hept-5-en-2-yl)ethyl)-3-((1-(cyclopropanecarbonyl)piperidin-4-yl)oxy)benzamide], the “cell proliferation (percent confluence)” value (VCaP (AR+) cell lines) is reported as “stagnates prostate cancer cell proliferation”, the formation of aggregates (aggregation monitoring) is reported as “does not form aggregates” and the “cell proliferation (percent confluence)” value (LNCaP (AR+) cell lines) is reported as “stagnates prostate cancer cell proliferation”. For the same compound, the “prostate cancer cell proliferation (relative proliferation, percent confluence)” value (prostate cancer cell) was “stagnates prostate cancer cell proliferation”, the “cell proliferation (percent confluence)” value (22Rv1 (AR+) cell lines) was “stagnates prostate cancer cell proliferation” and the “cell proliferation (percent confluence)” value (PC3 (AR-) cell lines) was “stagnates prostate cancer cell proliferation”. The “cell proliferation (percent confluence)” value (DU-145 (AR-) cell lines) was “stagnates prostate cancer cell proliferation”, the “binding to AR-v7” value (AR-v7) was “found to bind to AR-v7” and the IC50 (LNCaP) was 5.43 µM.
